Entries after “also recorded” stand apart in the source; their conditions may differ.

The subject of the assay is TET3. The assay is described as follows: TET3 protein level (immunoblot/immunofluorescence) in GT1-7 cells. Format: cell-based, mouse. As to conditions: 10 μM. As to the method: Mouse GT1-7 hypothalamic neuronal cell line (Sigma-Aldrich, SCC116), human SH-SY5Y neuronal blastoma cell line (ATCC, CRL-2266), and embryonic mouse hypothalamus cell line N11 (mHypoE-N11) (Cedarlane, CLU107) were purchased and cultured according to the manufacturers' instructions. For siRNA transfection in a 24-well plate scale, cells were seeded at a density of 2×10^5 cells/well the day before transfection. To prepare siRNA transfection solution for each well of cells, 5 pmol of NT siRNA (non-targeting control siRNA, AM4636, Ambion), Tet3 siRNA (siRNA specifically targeting mouse Tet3, 4390815/s101483, Ambion), or TET3 siRNA (siRNA specifically targeting human TET3, 4392420/s47238, Ambion) (Cao et al., 2019, Oncogene, 38:5356-5366; Xu et al., 2020, Cell Rep., 30:1310-1318) were mixed with 25 μl of OPTI-MEM (Gibco, 31985-070) by gentle pipetting (Cao, T. et al., 2019, Oncogene, 38:5356-5366; Xu, Y. et al., 2020, Cell Reports, 30:1310-1318 e5). In parallel, 1.5 μl of Lipofectamine RNAiMAX (Invitrogen, 13778-150) was mixed with 25 μl of OPTI-MEM by gentle pipetting. […]
For Bobcat339 treatment (FIG. 15A and FIG. 15B), GT1-7 cells grown in 24-well plates at 2×10^5 cells/well were incubated with vehicle or Bobcat339 at a final concentration of 10 μM for 6 h, followed by RNA and protein extractions. […] Protein and RNA were isolated 48 h later and analyzed. […]

Consider `Nc1nc(=O)n(-c2cccc(-c3ccccc3)c2)cc1Cl` [Bobcat339, 4-Amino-1-[1,1′-biphenyl]-3-yl-5-chloro-2(1H)-pyrimidinone], for which the TET3 protein level entry by setting is: (6 h) “a decrease in the protein level of TET3; also recorded: rapidly decreased the level of TET3 protein; also recorded: decreased TET3 expression at the protein level”; (48 h, without exogenous TET3) “decreased the level of TET3 protein”.
